Measurements taken from ChEMBL document CHEMBL1201862, “PubChem BioAssay data set” (2004).
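Each compound was tested at five concentrations against cells in 96-well plates for 48 hours. GI50 = concentration required for 50% inhibition of growth.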 Activity calls are given as the source filed them. Cut-off read from the data, not from the text of the source: active = GI50 up to about 1.1 µM and inactive = higher.

Experiments:
Assay in all cases: DTP human tumour cell line panel, 48 h
SNB-75 = test system: SNB-75
EKVX = test system: EKVX
OVCAR-8 = test system: OVCAR-8
SW-620 = test system: SW-620
SK-MEL-5 = test system: SK-MEL-5
UACC-62 = test system: UACC-62
U-251 = test system: U-251
KM12 = test system: KM12
SF-539 = test system: SF-539
HOP-62 = test system: HOP-62
SNB-19 = test system: SNB-19
SN12C = test system: SN12C
OVCAR-3 = test system: OVCAR-3
ACHN = test system: ACHN
CCRF-CEM = test system: CCRF-CEM
UO-31 = test system: UO-31
DU-145 = test system: DU-145
MDA-MB-435 = test system: MDA-MB-435
MDA-MB-231 = test system: MDA-MB-231

Compound	GI50 (SNB-75)	GI50 (EKVX)	GI50 (OVCAR-8)	GI50 (SW-620)	GI50 (SK-MEL-5)	GI50 (UACC-62)	GI50 (U-251)	GI50 (KM12)	GI50 (SF-539)	GI50 (HOP-62)	GI50 (SNB-19)	GI50 (SN12C)	GI50 (OVCAR-3)	GI50 (ACHN)	GI50 (CCRF-CEM)	GI50 (UO-31)	GI50 (DU-145)	GI50 (MDA-MB-435)	GI50 (MDA-MB-231)
C[C@@]12CCCC(=O)N1[C@@H](CO)C(c1ccccc1)O2 (some centres undefined)	> 100 µM (inactive)	> 100 µM (inactive)	> 100 µM (inactive)	> 100 µM (inactive)	> 100 µM (inactive)	> 100 µM (inactive)	> 100 µM (inactive)	> 100 µM (inactive)	> 100 µM (inactive)	> 100 µM (inactive)	> 100 µM (inactive)	> 100 µM (inactive)	> 100 µM (inactive)	> 100 µM (inactive)					
CCSC1=N/C(=C\c2ccco2)C(Nc2ccc(C)cc2)=N1	> 100 µM (inactive)	> 100 µM (inactive)	> 100 µM (inactive)	> 100 µM (inactive)	> 100 µM (inactive)	> 100 µM (inactive)	> 100 µM (inactive)	> 100 µM (inactive)		> 100 µM (inactive)	> 100 µM (inactive)	> 100 µM (inactive)	> 100 µM (inactive)	> 100 µM (inactive)	> 100 µM (inactive)	> 100 µM (inactive)	> 100 µM (inactive)	> 100 µM (inactive)	> 100 µM (inactive)
COc1ccc2c(ccc3c(COC(=O)NC(C)C)c(COC(=O)NC(C)C)n(C)c32)c1	4.6 µM (inactive)	16.4 µM (inactive)	5.9 µM (inactive)	11.5 µM (inactive)	13.2 µM (inactive)	4.42 µM (inactive)	15.1 µM (inactive)	11.5 µM (inactive)	5.82 µM (inactive)	4.99 µM (inactive)	14.2 µM (inactive)		12.7 µM (inactive)	1.81 µM (inactive)	3.21 µM (inactive)	5.98 µM (inactive)		7.74 µM (inactive)	16.3 µM (inactive)
COc1ccccc1C1=C2C(=O)N(C)C(c3ccccc3OC)=C2C(=O)N1C		> 100 µM (inactive)	39.2 µM (inactive)	> 100 µM (inactive)	> 100 µM (inactive)	> 100 µM (inactive)	37.9 µM (inactive)	> 100 µM (inactive)	27.6 µM (inactive)	18.9 µM (inactive)	32 µM (inactive)	> 100 µM (inactive)	33.5 µM (inactive)	68.5 µM (inactive)	> 100 µM (inactive)	50.8 µM (inactive)	> 100 µM (inactive)	> 100 µM (inactive)	48.1 µM (inactive)
CC(C)=CCc1cc(/C=C/C(=O)O)cc(CC=C(C)C)c1O [ARTEPILLIN]		81.7 µM (inactive)	> 100 µM (inactive)	> 100 µM (inactive)	> 100 µM (inactive)	66.8 µM (inactive)	> 100 µM (inactive)	76 µM (inactive)	> 100 µM (inactive)	> 100 µM (inactive)	> 100 µM (inactive)	> 100 µM (inactive)	> 100 µM (inactive)	> 100 µM (inactive)	> 100 µM (inactive)	87.5 µM (inactive)	> 100 µM (inactive)	> 100 µM (inactive)	> 100 µM (inactive)
CC1(C)O[C@@H](CCl)C[C@@H](C#N)O1	> 100 µM (inactive)	> 100 µM (inactive)	> 100 µM (inactive)	> 100 µM (inactive)	> 100 µM (inactive)	> 100 µM (inactive)	> 100 µM (inactive)	> 100 µM (inactive)	> 100 µM (inactive)	> 100 µM (inactive)	> 100 µM (inactive)		> 100 µM (inactive)	> 100 µM (inactive)	> 100 µM (inactive)	> 100 µM (inactive)			
COC(=O)c1ccccc1/C=C1\Cc2cc(C)c(C)cc2C1=O	26.5 µM (inactive)	> 100 µM (inactive)	55.7 µM (inactive)	> 100 µM (inactive)	> 100 µM (inactive)	> 100 µM (inactive)	27.1 µM (inactive)	> 100 µM (inactive)	> 100 µM (inactive)	30.4 µM (inactive)	33.4 µM (inactive)	> 100 µM (inactive)	> 100 µM (inactive)	> 100 µM (inactive)	> 100 µM (inactive)	84.1 µM (inactive)	> 100 µM (inactive)	> 100 µM (inactive)	
CCOC(=O)CCC(C(=O)OCC)n1nnc2ccc(Nc3c(C)[n+]([O-])c4cc(Cl)ccc4[n+]3[O-])cc21 (centres undefined)	44.7 µM (inactive)	27.7 µM (inactive)	21.5 µM (inactive)			17.4 µM (inactive)	51.8 µM (inactive)	22.2 µM (inactive)	19.9 µM (inactive)	31.9 µM (inactive)	> 100 µM (inactive)	24.5 µM (inactive)	17.7 µM (inactive)	34.7 µM (inactive)	29.1 µM (inactive)	34.8 µM (inactive)	30.4 µM (inactive)	19.2 µM (inactive)	
c1ccc(COc2ncccc2C2SCCCS2)cc1		> 100 µM (inactive)	> 100 µM (inactive)	> 100 µM (inactive)	> 100 µM (inactive)	> 100 µM (inactive)	> 100 µM (inactive)	> 100 µM (inactive)	67.3 µM (inactive)	> 100 µM (inactive)	> 100 µM (inactive)	> 100 µM (inactive)	> 100 µM (inactive)	> 100 µM (inactive)	> 100 µM (inactive)	> 100 µM (inactive)	> 100 µM (inactive)	> 100 µM (inactive)	> 100 µM (inactive)
C[C@@H](c1ccccc1)N(CC#N)C1CCC[C@H]1O (some centres undefined)	> 100 µM (inactive)	> 100 µM (inactive)	> 100 µM (inactive)	> 100 µM (inactive)	> 100 µM (inactive)	> 100 µM (inactive)	> 100 µM (inactive)	> 100 µM (inactive)	> 100 µM (inactive)	> 100 µM (inactive)	> 100 µM (inactive)	> 100 µM (inactive)	> 100 µM (inactive)	> 100 µM (inactive)	> 100 µM (inactive)	> 100 µM (inactive)			
Cc1cc(C)c2c(-c3ccccc3)cc(=O)[nH]c2c1	> 100 µM (inactive)	> 100 µM (inactive)	> 100 µM (inactive)	> 100 µM (inactive)	> 100 µM (inactive)	> 100 µM (inactive)	> 100 µM (inactive)	> 100 µM (inactive)		> 100 µM (inactive)		> 100 µM (inactive)	> 100 µM (inactive)	> 100 µM (inactive)	> 100 µM (inactive)		> 100 µM (inactive)	> 100 µM (inactive)	> 100 µM (inactive)
COc1cc([C@@H]2c3cc4c(cc3[C@@H](NCCNCCO)[C@H]3COC(=O)[C@H]23)OCO4)cc(OC)c1O	1.19 µM (inactive)		1.81 µM (inactive)	2.84 µM (inactive)	0.659 µM (active)	0.601 µM (active)	0.813 µM (active)	3.72 µM (inactive)		1.2 µM (inactive)	0.836 µM (active)				0.0861 µM (active)	15.4 µM (inactive)		9.44 µM (inactive)	3.69 µM (inactive)
Cc1nc(C)c(C(=O)NNC(N)=S)cc1C(=O)NNC(N)=S		> 100 µM (inactive)	> 100 µM (inactive)	> 100 µM (inactive)	> 100 µM (inactive)	> 100 µM (inactive)	> 100 µM (inactive)	> 100 µM (inactive)	> 100 µM (inactive)	> 100 µM (inactive)	> 100 µM (inactive)	> 100 µM (inactive)	> 100 µM (inactive)	> 100 µM (inactive)		> 100 µM (inactive)	> 100 µM (inactive)	> 100 µM (inactive)	> 100 µM (inactive)
CCOP(=O)(Nc1ccccc1P(=O)(OCC)OCC)OCC	> 100 µM (inactive)	> 100 µM (inactive)	> 100 µM (inactive)	> 100 µM (inactive)	> 100 µM (inactive)	> 100 µM (inactive)	> 100 µM (inactive)	> 100 µM (inactive)		> 100 µM (inactive)	> 100 µM (inactive)		> 100 µM (inactive)	> 100 µM (inactive)		> 100 µM (inactive)	> 100 µM (inactive)	> 100 µM (inactive)	> 100 µM (inactive)
CC1(C)O[C@@H](CO)[C@H]([C@@]23OC[C@H]4OC(C)(C)OC4[C@@H]2OC(C)(C)O3)O1 (some centres undefined)	> 100 µM (inactive)	> 100 µM (inactive)	> 100 µM (inactive)	> 100 µM (inactive)	20.3 µM (inactive)		> 100 µM (inactive)	> 100 µM (inactive)		> 100 µM (inactive)	> 100 µM (inactive)	> 100 µM (inactive)	> 100 µM (inactive)	> 100 µM (inactive)		> 100 µM (inactive)	> 100 µM (inactive)	> 100 µM (inactive)	> 100 µM (inactive)
CN1CCN([C@H]2C[C@H]3[C@@H]4CC=C5C[C@@H](N6CCCC6)CC[C@]5(C)[C@H]4CC[C@]3(C)[C@H]2O)CC1	> 100 µM (inactive)	> 100 µM (inactive)	66.8 µM (inactive)	33.4 µM (inactive)	18.8 µM (inactive)	67.3 µM (inactive)	59.2 µM (inactive)	56 µM (inactive)	16.2 µM (inactive)	51.1 µM (inactive)	90.4 µM (inactive)	> 100 µM (inactive)	> 100 µM (inactive)	> 100 µM (inactive)	38.6 µM (inactive)	94.4 µM (inactive)		26.1 µM (inactive)	74.6 µM (inactive)
